In ChEMBL document CHEMBL3112529, “Synthesis of a C-phosphonate mimic of maltose-1-phosphate and inhibition studies on Mycobacterium tuberculosis GlgE” (Bioorg Med Chem, 2014) one finds IC50 data, which are given here for 1 molecule.

pIC50: −log10 of the molar value.

In this experiment the target is T1, Alpha-1,4-glucan:maltose-1-phosphate maltosyltransferase (Mycobacterium tuberculosis (strain ATCC 25618 / H37Rv), UniProt P9WQ17).
T1 sequence (P9WQ17 whole entry): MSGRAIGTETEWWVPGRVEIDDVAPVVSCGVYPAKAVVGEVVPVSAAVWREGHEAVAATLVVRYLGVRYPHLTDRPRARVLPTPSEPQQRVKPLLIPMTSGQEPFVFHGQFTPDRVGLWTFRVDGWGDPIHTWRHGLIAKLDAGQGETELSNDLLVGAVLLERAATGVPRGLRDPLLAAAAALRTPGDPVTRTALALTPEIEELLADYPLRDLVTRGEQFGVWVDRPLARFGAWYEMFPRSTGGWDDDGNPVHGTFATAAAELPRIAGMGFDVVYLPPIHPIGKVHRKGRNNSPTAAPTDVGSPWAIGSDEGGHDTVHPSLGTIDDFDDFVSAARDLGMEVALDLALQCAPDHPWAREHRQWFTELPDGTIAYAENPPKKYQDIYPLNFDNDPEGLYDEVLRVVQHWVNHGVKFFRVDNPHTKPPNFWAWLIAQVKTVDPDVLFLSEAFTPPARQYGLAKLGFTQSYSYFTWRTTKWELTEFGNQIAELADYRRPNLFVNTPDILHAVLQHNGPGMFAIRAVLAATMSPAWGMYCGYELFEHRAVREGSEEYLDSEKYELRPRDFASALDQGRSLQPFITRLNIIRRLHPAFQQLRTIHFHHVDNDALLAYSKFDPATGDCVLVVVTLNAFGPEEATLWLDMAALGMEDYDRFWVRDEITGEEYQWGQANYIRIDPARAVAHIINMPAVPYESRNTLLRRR
Put plainly: Inhibition of recombinant Mycobacterium tuberculosis H37Rv GlgE expressed in Escherichia coli BL21 (DE3) rosetta cells using maltose-1-phosphate as substrate measured every 5 secs for 30 mins by purine nucleoside phosphorylase-coupled assay.

The pIC50 is −log10 of the IC50, conventionally taken in molar units. Consider `O=P(O)(O)C[C@H]1O[C@H](CO)[C@@H](O[C@H]2O[C@H](CO)[C@@H](O)[C@H](O)[C@H]2O)[C@H](O)[C@H]1O`, for which the negative-log IC50 (pIC50) is 3.64.
